The values that follow come from publication PMC10838102 (Journal of Experimental Pharmacology, 2024).

For data set [1] the following is noted: with piperine; cited from earlier work.
The conditions of data set [2]: concurrent administration of 2 g of curcumin and 5 mg of piperine; cited from earlier work.
In a further data set the test system is Caco-2 cell monolayer. Nature of the data set: Caco-2 cell monolayer permeability assay with LC-MS/MS analysis. The following applies: 2-hour permeability experiment.

In the case of `COc1cc(/C=C/C(=O)CC(=O)/C=C/c2ccc(O)c(OC)c2)ccc1O` [curcumin], in data set [1], the “increase of bioavailability of curcumin” value is 20 folds. The “increase in curcumin's bioavailability” value in data set [2] is recorded as “approximately a twofold increase”.

On to `CC(C)NCC(O)COc1cccc2ccccc12` (stereo not drawn) [propranolol], for which the Papp classification result with Caco-2 cell monolayer is recorded as “high”.
